The NIST ThermoML archive (doi:10.1021/je0601457)

Assay: xn = mol fraction of the nth substance listed

Cc1cnccn1 [2-methylpyrazine] + O=C=O
Fluid (supercritical or subcritical phases), Linear displacement technique
Settings | mass density [kg/m3]
305.05 K, 15480 kPa, x1 = 0.624 | 942
307.45 K, 8340 kPa, x1 = 0.339 | 950
307.45 K, 11280 kPa, x1 = 0.339 | 957
307.45 K, 16170 kPa, x1 = 0.339 | 965
307.55 K, 2720 kPa, x1 = 0.857 | 922
307.55 K, 4900 kPa, x1 = 0.857 | 926
307.55 K, 6860 kPa, x1 = 0.857 | 928
307.55 K, 11550 kPa, x1 = 0.857 | 934
309.15 K, 8070 kPa, x1 = 0.122 | 948
309.15 K, 11140 kPa, x1 = 0.122 | 972
309.15 K, 14720 kPa, x1 = 0.122 | 992
309.95 K, 8520 kPa, x1 = 0.017 | 652
309.95 K, 10170 kPa, x1 = 0.017 | 701
309.95 K, 11590 kPa, x1 = 0.017 | 724
311.75 K, 8520 kPa, x1 = 0.033 | 764
311.75 K, 10790 kPa, x1 = 0.033 | 831
311.75 K, 13310 kPa, x1 = 0.033 | 871
311.75 K, 15760 kPa, x1 = 0.033 | 905
315.25 K, 9690 kPa, x1 = 0.039 | 722
315.25 K, 10690 kPa, x1 = 0.039 | 749
315.25 K, 12660 kPa, x1 = 0.039 | 777
315.25 K, 14660 kPa, x1 = 0.039 | 812
315.45 K, 8620 kPa, x1 = 0.062 | 781
315.45 K, 11210 kPa, x1 = 0.062 | 824
315.45 K, 13170 kPa, x1 = 0.062 | 846
315.45 K, 16310 kPa, x1 = 0.062 | 879
316.45 K, 6030 kPa, x1 = 0.624 | 912
316.45 K, 10030 kPa, x1 = 0.624 | 917
316.45 K, 13210 kPa, x1 = 0.624 | 920
316.45 K, 17280 kPa, x1 = 0.624 | 926
317.55 K, 11280 kPa, x1 = 0.091 | 882
317.55 K, 14550 kPa, x1 = 0.091 | 913
317.55 K, 16520 kPa, x1 = 0.091 | 930
317.85 K, 8520 kPa, x1 = 0.156 | 887
317.85 K, 11140 kPa, x1 = 0.156 | 898
317.85 K, 12310 kPa, x1 = 0.156 | 899
317.95 K, 7340 kPa, x1 = 0.264 | 858
317.95 K, 9000 kPa, x1 = 0.264 | 863
317.95 K, 11830 kPa, x1 = 0.264 | 872
317.95 K, 15410 kPa, x1 = 0.264 | 882
320.75 K, 10340 kPa, x1 = 0.122 | 910
320.75 K, 11760 kPa, x1 = 0.122 | 924
320.75 K, 14380 kPa, x1 = 0.122 | 944
322.95 K, 4760 kPa, x1 = 0.857 | 905
322.95 K, 8520 kPa, x1 = 0.857 | 909
322.95 K, 12620 kPa, x1 = 0.857 | 914
322.95 K, 17030 kPa, x1 = 0.857 | 918
325.15 K, 7000 kPa, x1 = 0.339 | 932
325.15 K, 10590 kPa, x1 = 0.339 | 941
325.15 K, 15280 kPa, x1 = 0.339 | 952
326.65 K, 11620 kPa, x1 = 0.039 | 667
326.65 K, 12280 kPa, x1 = 0.039 | 690
326.65 K, 13620 kPa, x1 = 0.039 | 725
327.35 K, 10790 kPa, x1 = 0.091 | 808
327.35 K, 11520 kPa, x1 = 0.091 | 822
327.35 K, 13340 kPa, x1 = 0.091 | 848
327.35 K, 15830 kPa, x1 = 0.091 | 875
328.75 K, 9900 kPa, x1 = 0.156 | 872
328.75 K, 11000 kPa, x1 = 0.156 | 878
328.75 K, 13900 kPa, x1 = 0.156 | 890
329.15 K, 10450 kPa, x1 = 0.017 | 407
329.15 K, 11930 kPa, x1 = 0.017 | 574

Liquid, linear displacement
Settings | mass density [kg/m3]
305.05 K, x1 = 0.624 | 919
307.45 K, x1 = 0.339 | 937
307.55 K, x1 = 0.857 | 916
309.15 K, x1 = 0.122 | 934
309.95 K, x1 = 0.017 | 621
311.75 K, x1 = 0.033 | 747
315.25 K, x1 = 0.039 | 682
315.45 K, x1 = 0.062 | 766
316.45 K, x1 = 0.624 | 907
317.55 K, x1 = 0.091 | 841
317.85 K, x1 = 0.156 | 885
317.95 K, x1 = 0.264 | 856
320.75 K, x1 = 0.122 | 890
322.95 K, x1 = 0.857 | 900
325.15 K, x1 = 0.339 | 929
326.65 K, x1 = 0.039 | 595
327.35 K, x1 = 0.091 | 794
328.75 K, x1 = 0.156 | 868
